From patent publication US20250340543A1, “GPR84 ANTAGONISTS AND USES THEREOF” (Liminal BioSciences Limited, priority 2021, published 2025)
pIC50: −log10 of the molar value.

biological target: GPR84 (Homo sapiens (Human), UniProt Q9NQS5); assay: Gai biosensor BRET assay (GPR84-mediated activation of Gai, antagonist mode against agonist ZQ-16); type: cell-based; details: HEK293 cells, 200 nmol/L GPR84 agonist ZQ-16, read-out: hGPR84 IC50
Procedure, shortened: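 Transiently transfected HEK293 cells expressing GPR84, Gαi2-Rluc8, GFP10-Gγ2 and Gβ1, in Tyrode's buffer pH 7.5. Compounds pre-incubated 5 min at 37° C, then 200 nmol/L ZQ-16 for 5 min at room temperature; BRET² with coelenterazine 400A, ligand-promoted net BRET after background and vehicle subtraction.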

Chain of GPR84 (Q9NQS5 whole entry): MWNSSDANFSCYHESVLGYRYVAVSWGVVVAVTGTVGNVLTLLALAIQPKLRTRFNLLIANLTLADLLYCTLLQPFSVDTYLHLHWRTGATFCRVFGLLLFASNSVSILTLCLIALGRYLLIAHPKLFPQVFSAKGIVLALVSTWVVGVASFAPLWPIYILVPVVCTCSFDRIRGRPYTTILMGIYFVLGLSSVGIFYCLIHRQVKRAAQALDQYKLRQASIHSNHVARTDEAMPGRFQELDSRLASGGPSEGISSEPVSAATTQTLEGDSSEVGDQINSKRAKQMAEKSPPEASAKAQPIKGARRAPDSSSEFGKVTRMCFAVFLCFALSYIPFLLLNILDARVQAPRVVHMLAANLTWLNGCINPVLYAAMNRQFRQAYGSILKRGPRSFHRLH

Row | Compound | pIC50
1 | Cc1cc(OC[C@@H]2CCCOC2)cc(=O)n1[C@H](C)c1ccc(C#CC2CC2)cc1 [Compound I-232] | > 5.30
2 | Cc1cc(OCc2ncccc2Cl)cc(=O)n1[C@H](C)c1ccc(C#CC2CC2)cc1 [Compound I-256] | > 5.30
3 | Cc1cc(OCc2cnccn2)cc(=O)n1[C@H](C)c1ccc(C#CC2CC2)cc1 [Compound I-257] | > 5.30
4 | Cc1cc(OCc2ccncn2)cc(=O)n1[C@H](C)c1ccc(C#CC2CC2)cc1 [Compound I-258] | > 5.30

Second part, the compound after the results:

Row | pIC50 | Compound
5 | > 5.30 | Cc1cc(OCc2cccnc2)cc(=O)n1[C@H](C)c1ccc(C#CC2CC2)cc1 [Compound I-272]
6 | > 5.30 | Cc1cc(OCc2ncccn2)cc(=O)n1C(C)c1ccc(C#CC2CC2)c(F)c1 (stereo not drawn) [Compound I-273]
7 | > 5.30 | Cc1cc(OCc2ncccc2F)cc(=O)n1[C@H](C)c1ccc(C#CC2CC2)cc1 [Compound I-278]
8 | > 5.30 | Cc1cc(OCc2cncnc2)cc(=O)n1[C@H](C)c1ccc(C#CC2CC2)cc1 [Compound I-283]

same assay, conditions: compound tested at 2 μM (concentration code A)

Row | Compound | inhibition at 2 µM [%]
9 | Cc1c(C#CC2CC2)cccc1Cn1c(C)cc(OCc2ncccn2)cc1=O [Compound I-241] | < 25
10 | Cc1cc(OCc2ncccn2)cc(=O)n1[C@H](C)c1cccc(C#CC2CC2)c1 [Compound I-252] | < 25
11 | Cc1cc(OCc2ncccc2Cl)cc(=O)n1[C@H](C)c1ccc(C#CC2CC2)cc1 [Compound I-256] | > 75
12 | Cc1cc(OCc2cnccn2)cc(=O)n1[C@H](C)c1ccc(C#CC2CC2)cc1 [Compound I-257] | > 75
13 | Cc1cc(OCc2ccncn2)cc(=O)n1[C@H](C)c1ccc(C#CC2CC2)cc1 [Compound I-258] | > 75

Next, values leading:

Row | inhibition at 2 µM [%] | Compound
14 | > 75 | Cc1cc(OCc2cccnc2)cc(=O)n1[C@H](C)c1ccc(C#CC2CC2)cc1 [Compound I-272]
15 | > 75 | Cc1cc(OCc2ncccc2F)cc(=O)n1[C@H](C)c1ccc(C#CC2CC2)cc1 [Compound I-278]
16 | > 75 | Cc1cc(OCc2cncnc2)cc(=O)n1[C@H](C)c1ccc(C#CC2CC2)cc1 [Compound I-283]
17 | > 75 | Cc1cc(OCc2cocn2)cc(=O)n1[C@H](C)c1ccc(C#CC2CC2)cc1 [Compound I-284]

same assay, conditions: compound tested at 10 μM (concentration code D)

Row | Compound | inhibition at 10 µM [%]
18 | Cc1cc(OCC2OCC(C)(C)CO2)cc(=O)n1[C@H](C)c1ccc(C#CC2CC2)cc1 [Compound I-227] | 50 to 75
19 | CC1(C)CN(c2cccc(Cn3ccc(OCC4COCCO4)cc3=O)c2)C1 (stereo not drawn) [Compound I-228] | < 25
20 | Cc1cc(OCC2Oc3ccccc3O2)cc(=O)n1[C@H](C)c1ccc(C#CC2CC2)cc1 [Compound I-230] | < 25
21 | Cc1cc(OC[C@@H]2COCCO2)cc(=O)n1Cc1cc(C#CC2CC2)ccn1 [Compound I-231] | < 25
22 | Cc1cc(OC[C@@H]2CCCOC2)cc(=O)n1[C@H](C)c1ccc(C#CC2CC2)cc1 [Compound I-232] | > 75
23 | Cc1cc(OC[C@@H]2COCCO2)cc(=O)n1Cc1cccc(C#CC2CC2)c1 [Compound I-233] | 25 to 50
24 | Cc1cc(OCC2COCCO2)cc(=O)n1CCc1ccc(C#CC2CC2)cc1 (stereo not drawn) [Compound I-234] | 50 to 75
25 | Cc1cc(OCc2ncccn2)cc(=O)n1[C@H](C)c1ccc(N2CC(C)(C)C2)cc1 [Compound I-235] | < 25
26 | Cc1cc(OCc2ncccn2)cc(=O)n1[C@@H](C)c1ccc(C#CC2CC2)cc1 [Compound I-236] | < 25
27 | Cc1cc(OCc2ncccn2)cc(=O)n1Cc1ccc(C#CC2CC2)cc1 [Compound I-237] | 50 to 75
28 | Cc1cc(OCc2ncccn2)cc(=O)n1CCc1ccc(C#CC2CC2)cc1 [Compound I-238] | > 75
29 | Cc1cc(C#CC2CC2)ccc1C(C)n1ccc(OC[C@@H]2COCCO2)cc1=O (stereo partly drawn) [Compound I-239] | < 25
30 | CC(c1ccc(C#CC2CC2)cn1)n1ccc(OC[C@@H]2COCCO2)cc1=O (stereo partly drawn) [Compound I-240] | 25 to 50
31 | Cc1cc(OCc2ncccn2)cc(=O)n1Cc1ccc(N2CC(C)(C)C2)cc1 [Compound I-242] | < 25
32 | Cc1cc(OCc2ncccn2)cc(=O)n1[C@H](C)c1ccc(C#N)cc1 [Compound I-243] | < 25
33 | Cc1cc(OCc2ncccn2)cc(=O)n1-c1ccc(C#CC2CC2)cc1 [Compound I-244] | < 25

Row | Compound | inhibition at 10 µM [%]
34 | Cc1cc(OCc2ncccn2)cc(=O)n1-c1cccc(C#CC2CC2)c1 [Compound I-245] | < 25
35 | Cc1cc(OC[C@@H]2COCCO2)cc(=O)n1C(C)c1ccc(C#CC2CC2)cn1 (stereo partly drawn) [Compound I-246] | < 25
36 | COc1cnc(COc2cc(C)n([C@H](C)c3ccc(C#CC4CC4)cc3)c(=O)c2)nc1 [Compound I-247] | > 75
37 | CC1(C)CN(c2cccc(Cn3ccc(OCc4ncccn4)cc3=O)c2)C1 [Compound I-248] | 25 to 50
38 | CC(c1ccc(C#CC2CC2)cn1)n1ccc(OCc2ncccn2)cc1=O (stereo not drawn) [Compound I-249] | 25 to 50
39 | CC(c1cc(C#CC2CC2)ccn1)n1ccc(OCc2ncccn2)cc1=O (stereo not drawn) [Compound I-250] | 25 to 50
40 | Cc1cc(C#CC2CC2)ccc1C(C)n1ccc(OCc2ncccn2)cc1=O (stereo not drawn) [Compound I-251] | < 25
41 | Cc1cc(OCc2ncccn2)cc(=O)n1C(C)c1ccc(C#CC2CC2)cn1 (stereo not drawn) [Compound I-253] | 50 to 75
42 | Cc1cc(C#CC2CC2)cnc1C(C)n1ccc(OCc2ncccn2)cc1=O (stereo not drawn) [Compound I-254] | < 25
43 | CC(c1ccc(NC(=O)C2CC2)cc1)n1ccc(OCc2ncccn2)cc1=O (stereo not drawn) [Compound I-255] | < 25
44 | Cc1cc(OCc2ncccn2)cc(=O)n1[C@H](C)c1ccc(C#CCN2CC(C)(C)C2)cc1 [Compound I-259] | < 25
45 | Cc1cc(OCc2ncc(Cl)cn2)cc(=O)n1[C@H](C)c1ccc(C#CC2CC2)cc1 [Compound I-260] | > 75
46 | Cc1cc(OCc2ncccn2)cc(=O)n1C(C)c1cccc(C#CC2CC2)c1 (stereo not drawn) [Compound I-261] | < 25
47 | Cc1cc(OCc2ncccn2)cc(=O)n1Cc1cccc(OCC(F)(F)F)c1 [Compound I-262] | < 25
48 | Cc1cc(OCc2ncccn2)cc(=O)n1[C@H](C)c1ccc(C#CCNCc2ccccc2)cc1 [Compound I-263] | < 25
49 | Cc1cc(OCc2ncccn2)cc(=O)n1[C@H](C)c1ccc(C#CCN(C)Cc2ccccc2)cc1 [Compound I-264] | 25 to 50

Results, then the compound that gave them:

Row | inhibition at 10 µM [%] | Compound
50 | < 25 | Cc1cc(OCc2ncccn2)cc(=O)n1C(C)c1cc(C#CC2CC2)cs1 (stereo not drawn) [Compound I-265]
51 | < 25 | Cc1cc(OCc2ncccn2)cc(=O)n1Cc1cc(C#CC2CC2)ccn1 [Compound I-266]
52 | < 25 | Cc1cc(OCc2ncccn2)cc(=O)n1Cc1cccc(C#CC2CC2)c1 [Compound I-267]
53 | < 25 | Cc1cc(OCc2ncccn2)cc(=O)n1Cc1cc(C#CC2CC2)ccc1F [Compound I-268]
54 | < 25 | Cc1cc(OCc2ncccn2)cc(=O)n1[C@H](C)c1ccc(C#CCNC(=O)OC(C)C)cc1 [Compound I-269]
55 | < 25 | Cc1cc(OCc2ncccn2)cc(=O)n1[C@H](C)c1ccc(C#CC2CC2)cc1F [Compound I-270]
56 | < 25 | Cc1cc(OCc2ncccn2)cc(=O)n1Cc1cccc(N2CC(C)(C)C2)c1 [Compound I-271]
57 | > 75 | Cc1cc(OCc2ncccn2)cc(=O)n1C(C)c1ccc(C#CC2CC2)c(F)c1 (stereo not drawn) [Compound I-273]
58 | < 25 | Cc1cc(OCC2CCCCO2)cc(=O)n1C(C)c1ccc(OCC(F)(F)F)cc1 (stereo not drawn) [Compound I-274]
59 | < 25 | Cc1cc(OCc2ncccn2)cc(=O)n1C(C)c1ccc(OCC(F)(F)F)cc1 (stereo not drawn) [Compound I-275]
60 | > 75 | Cc1cnc(COc2cc(C)n([C@H](C)c3ccc(C#CC4CC4)cc3)c(=O)c2)nc1 [Compound I-279]
61 | < 25 | Cc1cc(OCc2ncccn2)cc(=O)n1Cc1cccc(C#CCNc2ccccc2)c1 [Compound I-280]
62 | < 25 | Cc1cc(C#CC2CC2)cnc1C(C)n1ccc(OC[C@@H]2COCCO2)cc1=O (stereo partly drawn) [Compound I-285]
63 | < 25 | CC(c1cc(C#CC2CC2)ccn1)n1ccc(OC[C@@H]2COCCO2)cc1=O (stereo partly drawn) [Compound I-286]
